Converted amounts (≈) assume the structure as drawn. “And” between values parts separate entries of the source, which are not always exact repeats. Identical values can stand only once.
Assays:
[1] = test system: women with postpartum depression; assay: Phase 2A study: safety and tolerability (adverse events); assay type: in vivo, human
[2] = test system: women with postpartum depression; assay: Mean change in HAM-D score, ganaxolone versus placebo treatment groups; assay type: in vivo, human; settings: worded as 'in certain embodiments'
From the text: The Hamilton Depression Rating Scale (HAM-D) is a commonly-used semi-structured clinician-rated instrument which assesses the range of symptoms that are most frequently observed in subjects with major depression. HAM-D has undergone a considerable amount of psychometric study and is accepted as a valid standard of symptom outcome assessment in studies of major depression. In the examples disclosed herein HAM-D was scored using the original 17-item HAM-D scale (HAM-D17).
Administration of ganaxolone in accordance with the methods of the present invention may provide a mean change in HAM-D score (i.e., least-squares (LS) mean reduction) at about 6 hours and/or at about 12 hours and/or about 24 hours (about 1 day) and/or about 48 hours (about 2 days) and/or about 60 hours (about 2.5 days) and/or about 72 hours (about 3 days) and/or about 11 days and/or about 30 days and/or about 34 days of from about 2 to about 17. In the preferred embodiments, the mean change in HAM-D score is greater than placebo.
The primary efficacy endpoint is HAM-D17 total score change from baseline to 60 hours post-infusion (on Day 3) for Cohorts 1-3 and to Day 29 for Cohort 6. The primary analysis in each cohort is done using the mITT set. Although the trial is not powered for inferential analysis and there is no consideration for control of type 1 error across multiple cohorts, a clinically meaningful numeric difference in means of 3-4 points, based on mITT analysis, between ganaxalone and placebo treatment groups is considered an indication of acceptable efficacy and is be the most influential outcome in the overall assessment of the efficacy of ganaxolone in treating PPD.

[3] = Cardiovascular safety pharmacology in dogs, single dose; assay type: in vivo, dog; settings: dog, in vivo, single dose of up to 15 mg/kg
Method: (§1) Safety pharmacology studies were conducted with ganaxolone.

[4] = test system: dogs; assay: as above; assay type: in vivo, dog; settings: single dose of up to 15 mg/kg
Method: as §1

[5] = test system: female rats; assay: Pulmonary safety pharmacology in female rats; assay type: in vivo, rat; settings: doses up to 40 mg/kg
Method: as §1

[6] = test system: synaptic and extrasynaptic GABAA receptors; assay: Activation of synaptic and extrasynaptic GABAA receptors; settings: site distinct from the benzodiazepine site
[7] = test system: mouse model of posttraumatic stress disorder (PTSD); settings: Pinna and Rasmussen, 2014; cited from earlier work
[8] = test system: children and adolescents with fragile X syndrome; settings: in those with higher baseline anxiety; Ligsay et al, 2017; cited from earlier work
[9] = human plasma following oral administration; cited from earlier work
[10] = Solubility of ganaxolone; settings: for solubility: organic solvent or mixture
[11] = Excretion of radioactivity; settings: all species
[12] = IV toxicity in rats, 14 days; settings: rat, in vivo, iv
[13] = test system: rats; assay: IV toxicity in rats, 14 days; settings: continuous IV dosing for 14 days
[14] = test system: rabbits; assay: Local tolerance study in rabbits; settings: rabbit, in vivo
[15] = biological target: human ether-a-go-go related gene (hERG) receptor (Homo sapiens, UniProt Q12809); assay: hERG interaction (safety pharmacology); settings: measured concentration of 70 nM (n=2)
[16] = test system: rats or mice; assay: Reproductive and developmental toxicity
[17] = 1-year (chronic oral) dog toxicity study; settings: dog, in vivo, oral, 15 mg/kg/day
[18] = test system: dogs; assay: 1-year (chronic oral) dog toxicity study
[19] = test system: cytochrome P450 (CYP) isoenzymes 1A1/2 and 2B1/2; assay: Induction of cytochrome P450 isoenzymes in rats; settings: female rats but not males
[20] = IV bolus plus continuous IV infusion toxicity in dog, 28 days; settings: in vivo
[21] = test system: CYP3A4/5; assay: Ganaxolone levels in subjects taking strong CYP inducers (carbamazepine and phenytoin); settings: with strong CYP inducers (carbamazepine and phenytoin)

Chain of human ether-a-go-go related gene (hERG) receptor (Q12809 whole entry): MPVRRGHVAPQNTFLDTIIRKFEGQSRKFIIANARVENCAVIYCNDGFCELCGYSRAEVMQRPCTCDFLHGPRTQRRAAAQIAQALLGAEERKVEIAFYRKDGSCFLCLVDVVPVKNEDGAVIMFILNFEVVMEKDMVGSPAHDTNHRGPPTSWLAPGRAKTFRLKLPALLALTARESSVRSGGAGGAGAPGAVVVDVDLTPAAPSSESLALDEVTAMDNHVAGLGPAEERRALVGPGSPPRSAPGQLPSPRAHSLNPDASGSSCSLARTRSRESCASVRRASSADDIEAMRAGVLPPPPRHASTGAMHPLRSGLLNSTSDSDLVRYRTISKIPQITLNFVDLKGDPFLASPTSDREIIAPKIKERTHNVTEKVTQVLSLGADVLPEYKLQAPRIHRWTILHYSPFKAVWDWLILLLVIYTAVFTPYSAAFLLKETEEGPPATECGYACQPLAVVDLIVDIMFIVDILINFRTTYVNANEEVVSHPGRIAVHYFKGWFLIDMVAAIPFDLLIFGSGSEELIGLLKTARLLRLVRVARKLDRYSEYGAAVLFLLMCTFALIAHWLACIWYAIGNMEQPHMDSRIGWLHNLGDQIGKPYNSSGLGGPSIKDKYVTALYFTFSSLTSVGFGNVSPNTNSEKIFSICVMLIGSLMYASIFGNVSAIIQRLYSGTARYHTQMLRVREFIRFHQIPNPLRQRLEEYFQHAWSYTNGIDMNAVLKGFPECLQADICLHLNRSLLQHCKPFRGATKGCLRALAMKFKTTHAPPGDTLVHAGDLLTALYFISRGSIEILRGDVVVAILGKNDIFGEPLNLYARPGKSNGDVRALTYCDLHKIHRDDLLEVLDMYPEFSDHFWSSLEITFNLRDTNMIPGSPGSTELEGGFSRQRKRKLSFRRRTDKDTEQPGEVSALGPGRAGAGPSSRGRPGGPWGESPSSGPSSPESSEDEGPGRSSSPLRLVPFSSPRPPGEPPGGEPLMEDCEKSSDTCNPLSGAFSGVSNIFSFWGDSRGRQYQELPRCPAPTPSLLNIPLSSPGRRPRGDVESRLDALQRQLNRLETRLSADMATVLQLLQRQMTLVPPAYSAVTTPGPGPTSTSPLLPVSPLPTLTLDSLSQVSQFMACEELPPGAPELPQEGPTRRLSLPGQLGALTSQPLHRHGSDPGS

## CC(=O)[C@H]1CC[C@H]2[C@@H]3CC[C@H]4C[C@](C)(O)CC[C@]4(C)[C@H]3CC[C@]12C [ganaxolone, 3α-hydroxy-3β-methyl-5α-pregnan-20-one]
[1]; Cohort 1: IV 4 mg/hr for 48 h then 2 mg/hr for 12 h, 9 subjects
  Serious adverse events or adverse events leading to discontinuation: no serious adverse events or adverse events leading to discontinuation
[1]; Cohort 6
  DC for AE: 0 n (%)
  Incidence of dizziness: 25%
  Serious adverse events or adverse events leading to treatment discontinuation: no serious adverse events or adverse events leading to treatment discontinuation
  TEAE somnolence: 0 n (%)
[1]; Cohort 6: IV 20 mg/hr for 6 hours and 900 mg orally with dinner
  Incidence of somnolence and sedation: > 30% and 31.3%
[1]; Cohort 6, 900 mg orally with dinner, after Day 2
  Tolerability of oral administration: well tolerated
[2]; 12 hours
  Difference between ganaxolone and placebo treatment groups in mean change in HAM-D score: 0.7
[2]; 24 hours
  Difference between ganaxolone and placebo treatment groups in mean change in HAM-D score: 1.5
[2]; 48 hours
  Difference between ganaxolone and placebo treatment groups in mean change in HAM-D score: 5.6
[2]; 60 hours
  Difference between ganaxolone and placebo treatment groups in mean change in HAM-D score: 4.2
[2]; 72 hours
  Difference between ganaxolone and placebo treatment groups in mean change in HAM-D score: 2.9
[2]; 11 days
  Difference between ganaxolone and placebo treatment groups in mean change in HAM-D score: 5.9
[2]; 34 days
  Difference between ganaxolone and placebo treatment groups in mean change in HAM-D score: 4.1
[3]; read-out: AUC(0-24)
  AUC(0-t): 10000 ng·h/mL
[3]; read-out: Maximum concentration [Cmax]
  Cmax: 1 µg/mL
[4]
  Effect on cardiovascular parameters: no effect on cardiovascular parameters
[5]
  Pulmonary effects: No pulmonary effects were observed
[6]
  Potency and efficacy in activating GABAA receptors: comparable to allopregnanolone
[7]
  Aggression and social isolation-induced anxiety-like behaviour: decreased aggression and social isolation-induced anxiety-like behaviour
[8]
  Anxiety, hyperactivity and attention: reduced anxiety and hyperactivity and improved attention
[9]
  Half-life: approximately 20 hours
[10]; 95% alcohol
  solubility: 13000 µg/mL (≈ 39.1 mM)
[10]; polyethylene glycol
  solubility: 3100 µg/mL (≈ 9.32 mM)
[10]; propylene glycol
  solubility: 3500 µg/mL (≈ 10.5 mM)
[10]; using water soluble beta cyclodextrins
  Concentration dissolved: > 1000 µg/mL
[10]; water
  Solubility in water: insoluble
[11]
  Excreted radioactivity via faeces: > 70%
[12]; female
  NOAEL at 14 days: 30 mg/kg/day
[12]; male
  NOAEL at 14 days: 42 mg/kg/day
[13]
  Clinical pathology parameters or histopathology: no ganaxolone-related changes
[14]
  Local tolerance: no findings
[15]
  Interaction with hERG receptor: did not interact
[16]; rats
  Fertility and early embryonic development: no effects on fertility and early embryonic development
[16]; rats or mice
  Teratogenicity: not teratogenic
[17]
  Cmax: > 1.5 µg/mL
[18]; 10 and 15 mg/kg/day
  Findings associated with mean Cmax greater than 1500 ng/mL: increased weight and total plasma cholesterol levels
[18]; after 3 months of dosing, in 4 animals (>190 bpm)
  ECG / heart rate finding: transient sinus tachycardia
[19]
  Induction of CYP isoenzymes 1A1/2 and 2B1/2: induces
[20]
  NOAEL at 28 days: 7.2 mg/kg/day
[21]
  Lowering in overall ganaxolone levels and exposure: ~45%
